Kd data for two compounds are collected here from PMC4433263, “Identification of Rv3852 as an Agrimophol-Binding Protein in Mycobacterium tuberculosis” (PLoS ONE, 2015).

The experiment concerns the target T1, Rv3852 (Mycobacterium tuberculosis, UniProt I6YHB0).
T1 construct: gene hns
Nature of the experiment: ITC; supported by competitive EMSA with proU2 DNA. It is filed as binding. For orientation: ITC needs no label: the signal is the heat of the interaction.

T1 sequence (I6YHB0 2-134 limits assumed): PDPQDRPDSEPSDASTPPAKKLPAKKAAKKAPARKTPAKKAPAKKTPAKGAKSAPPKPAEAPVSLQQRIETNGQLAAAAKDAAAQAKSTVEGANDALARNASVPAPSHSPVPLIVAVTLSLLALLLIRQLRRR

As for `C#CCOc1c(C)c(O)c(Cc2c(O)c(C)c(O)c(C(=O)C(C)CC)c2O)c(O)c1C(=O)CCC` (centres unmarked) [a1], the affinity, expressed as Kd, was 22 µM.

For `CCCC(=O)c1c(O)c(CC2(C)C(=O)C(C(=O)C(C)CC)=C(O)C(C)=C2O)c(O)c(C)c1OC` (centres unmarked) [agrimophol], the Kd – broadly, a measure of binding affinity in units of concentration – was found to be 34 µM.
